Experimental data taken from patent US12458630B2, “Combination therapy for cancer” (The Regents of the University of California, priority 2020, dated 2025).

Columns and labels:
MP-related proteins = assay: Immunoblot of MP-related proteins in BxPC3 cells; assay type: cell-based, human; conditions: WT and IKKα KO BxPC3 cells, ML385 10 μM, 24 hrs
Method: Immunoblot and immunoprecipitation. Cells were harvested and lysed in RIPA buffer (50 mM Tris-HCl, pH 7.4, 150 mM NaCl, 1% Triton X-100, 1% Na deoxycholate, 0.1% SDS, 1 mM EDTA) supplemented with complete protease inhibitor cocktail. Proteins were resolved on SDS-polyacrylamide gels, and then transferred to a polyvinylidene difluoride membrane. After blocking with 5% (w/v) fat free milk, the membrane was stained with the corresponding primary antibodies followed by incubation with the appropriate secondary HRP-conjugated antibodies, and development with ECL. Immunoreactive bands were detected by automatic X-ray film processor or KwikQuant Imager.

BxPC3 cells = assay: TMR-DEX macropinosome uptake assay; assay type: cell-based, human; conditions: WT and IKKα KO BxPC3 cells (WT KRAS), ML385 10 μM, 24 hrs
[1] = system: 1305 primary human PDAC cells; assay: Cell viability assay (CCK-8); assay type: cell-based; conditions: IKKα^low 1305 cells, 3 days
Method: (§1) In some embodiments, cells were plated in 96-well plates coated with or without ECM at a density of 3000 cells (MIA PaCa-2, 1444, 1305, COLO 357/FG) or 1500 cells (KC6141) per well and incubated overnight prior to treatment. EIPA (10.5 μM), IPI549 (600 nM), MBQ-167 (500 nM), MRT68921 (600 nM) or erlotinib (2 μM, Sigma), ML385 (10 μM, Sigma), HCQ (10 μM or 80 μM) or their combinations were added to the wells for 24, 72 or 96 hrs. Next, 10 μL of CCK-8 was added to each well. The optical density was read at 450 nm using a microplate reader (FilterMax F5, Molecular Devices, USA) at day 0, 1, 2, 3, and 4. For glutamine-deprivation assays, cells in 96-well plates were rinsed briefly in PBS and incubated in the 0.2 mM glutamine. Glutamine-free DMEM medium was supplemented with 0.2 mM glutamine in the presence of 10% dialyzed FBS and 25 mM HEPES. For glucose-deprivation assays, cells in 96-well plates were rinsed briefly in PBS and incubated in the 0.5 mM glucose. Glucose-free DMEM medium was supplemented with 0.5 mM glucose in the presence of 10% dialyzed FBS and 25 mM HEPES. For some conditions, the medium was supplemented with a final concentration of 2% BSA (Fraction V, fatty-acid-, nuclease and protease-free, Calbiochem). For all experiments, media were replaced every 24 hrs. Viable cell counts were obtained using CCK-8 assay described as above.

KC6141 cells [2] = assay: L-Amino acid assay; assay type: cell-based, mouse; conditions: KC6141 cells on ECM, 0.5 mM glucose, 24 hrs
Method: (§2) Extracellular Matrix (ECM) Preparation. Skin fibroblasts were seeded on 6/12/96-well plates. One day after plating, cells were switched into DMEM (with pyruvate) with 10% dialysed FBS supplemented with or without 500 μM ^3H-proline and 100 μM Vitamin C. Cells were cultured for 6 days with media renewal every 24 h. After six days, skin fibroblasts were removed by washing in 1 ml or 500 μl or 100 μl per well PBS with 0.5% (v/v) Triton X-100 and 20 mM NH4OH. ECM was washed five times with PBS before plating KC6141 cells. The following day, KC6141 cells were switched into the indicated medium for 24 or 72 hrs.
L-Amino Acid Assay. Total amount of free L-amino acids (except for glycine) were measured by L-Amino Acid Assay Kit (Colorimetric) (antibodies) according to manufacturer's protocol. Briefly, KC6141 cells were grown on 6-well plates coated with or without ECM and treated as above. The cells were resuspended at 10^6 cells/mL 1× Assay Buffer and were homogenized on ice and then centrifuged to remove debris. 50 μL of each L-Alanine standard or cell lysis was added into wells of a 96-well microtiter plate. Then 50 μL of Reaction Mix was added to each well. The well contents were mixed thoroughly and incubated for 90 minutes at 37° C. protected from light. The plate was read with a spectrophotometric microplate reader in the 540-570 nm range. The concentration of L-Amino Acids was calculated within samples by comparing the sample OD to the standard curve.

KC6141 mouse PDAC cells = assay: Cell viability assay (CCK-8); assay type: cell-based; conditions: WT and IKKα KD 6141 cells on ECM, 0.5 mM glucose, 3 days; EIPA, IPI549 600 nM, MBQ-167 500 nM
Method: as §2
Cell viability assay. Cell viability was determined with Cell Counting Kit-8 assay (CCK-8 assay kit, Glpbio). Cells were plated in 96-well plates at a density of 3000 cells (MIA PaCa-2) or 1500 cells (KC6141) per well and incubated overnight prior to treatment. EIPA (10 μM), MRT68921 (600 nM) or erlotinib (2 μM, Sigma) were added to the wells for 72 and 96 hrs. Next, 10 μL of CCK-8 was added to each well. The optical density was read at 450 nm using a microplate reader (FilterMax F5, Molecular Devices, USA) at day 0, 1, 2, 3, and 4. For glutamine-deprivation assays, cells in 96-well plates were rinsed briefly in PBS and incubated in the 0.2 mM glutamine. Glutamine-free DMEM medium was supplemented with 0.2 mM glutamine in the presence of 10% dialysed FBS and 25 mM HEPES. For some conditions, the medium was supplemented with a final concentration of 2% BSA (Fraction V, fatty-acid-, nuclease and protease-free, Calbiochem). For all experiments, media were replaced every 24 hrs. Viable cell counts were obtained using CCK-8 assay described as above.
as §1

KC6141 cells [3] = assay: Luminescence ATP detection assay; assay type: cell-based, mouse; conditions: KC6141 cells on ECM, 0.5 mM glucose, 24 hrs; EIPA 10.5 μM, MBQ-167 500 nM, MRT68921 600 nM
Method: as §2
Luminescence ATP Detection Assay. Intracellular ATP level was determined with luminescence ATP detection assay system (PerkinElmer) according to manufacturer's protocol. Briefly, KC6141 cells were grown on 96-well plates coated with or without ECM in the presence of 100 μl 0.5 mM glucose medium with or without EIPA (10.5 μM), MBQ-167 (500 nM), MRT68921 (600 nM) or their combinations for 24 hrs. 50 μl mammalian cell lysis solution was added and shaken for 5 minutes. Next, 50 μl substrate solution was added and shaken for five minutes. Finally, plate was adapted in dark for 10 minutes and luminescence was measured.

Row | SMILES | MP-related protein expression increased by IKKα ablation (MP-related proteins) | TMR-DEX uptake increased by IKKα ablation (BxPC3 cells) | sensitivity to single agent (cell viability) [1] | amino acid content (KC6141 cells [2]) | cell viability enhanced by extracellular matrix (ECM) (KC6141 mouse PDAC cells) | cellular ATP (KC6141 cells [3])
1 | Cc1ccccc1C(=O)N1CCc2cc(-c3nc(NC(=O)Cc4ccc5c(c4)OCO5)sc3C)ccc21 [ML385] | blocked this effect | blocked this effect | very sensitive |  |  | 
2 | CCn1c2ccccc2c2cc(-n3nncc3-c3ccccc3)ccc21 (racemic) [MBQ-167] |  |  |  | reduced | suppressed | reduced
